Where “and” joins values, the source holds several entries; their conditions need not be identical. Identical values can stand only once. Like-named read-outs stand apart in the source and are kept apart here.
Legend:
[1] = Single-dose oral pharmacokinetic study of ATB tablets in healthy human subjects (plasma and saliva, non-compartmental analysis); assay type: in vivo; conditions: for AUC(0-t) / Cmax / Tmax / half-life / Kp: both sexes, human, po; for Kp: saliva and plasma; for inter-subject variability of systemic exposure (AUC): n = 8
Method: In addition, in vivo correlation between plasma and saliva concentrations was determined as the secondary outcome.
The ratio of drug concentration in plasma and saliva were calculated using Equations (1) and (2). (1) RCmax=Cmax saliva/Cmax plasma (2) RAUC=AUC0–24 saliva/AUC0–24 plasma […]
S2.1. Human Pharmacokinetic Study Design
The study was conducted in two phases. Two self-volunteered subjects participated in the study […]
Participants refrained from consumption of […]
dosing blood and saliva samples were collected. Each participant received single-dose oral […]
saliva sample kit for salivary collection. Plasma samples were then collected by centrifugation of […]
hour post-administration. […]
administration. […] Throughout the […]
collected and saline lock was removed. Participants returned the next day morning for 24-hour […]
Participants fasted 8-12 hours before each

[2] = Sample stability of ATB components (bench, freeze-thaw, short-term, long-term); assay type: physicochemical; conditions: in % (unit assumed)
Method: samples for calibration were prepared. The study and QC samples were prepared on the same day as the UPLC-MS/MS analysis was done.
Calibration curves were prepared the same way as described in section S1.2.2. The linearity of each calibration curve was determined by plotting the peak area ratio of Matr, Maac, Dict, and Frax to I.S. in plasma. […] The lower limit of […] was defined based on a signal-to-noise ratio of 10:1.
S1.2.4 Extraction recovery and matrix effect
The extraction recoveries of Matr, Maac, Dict, and Frax were determined by comparing the relative peak areas obtained from blank plasma spiked with analytes and those obtained from water spiked with the same amounts of analytes. Matrix effect was determined by comparing the peak areas of blank plasma extracts spikes with analytes and I.S. with those of the standard solutions dried and reconstituted with mobile phase. The quality control samples were prepared in plasma.
Bench work (25°C for 4 hours), short-term (-20°C for 7 days), long-term (-80°C for 4 months) and three freeze-thaw cycle stabilities were determined.

[3] = parameters: method as in Gao et al. [11]; conditions: blood/plasma ratio; ref Gao et al. [11]; cited from earlier work
[4] = parameters: method as in Bui et al. [9]; conditions: ref Bui et al. [9]; cited from earlier work
[5] = parameters: method as in Gao et al. [11]; conditions: plasma; 1.2 g ATB (equal to 4.8 mg Matr); ref Gao et al. [11]; cited from earlier work
[6] = Sample stability of ATB components (bench, freeze-thaw, short-term, long-term); assay type: physicochemical; conditions: in % (unit assumed); remark: listed apart in the source
[7] = parameters: method as in ref [3] of Supplement S4 (Bui et al.); conditions: mice; ref [3] of Supplement S4 (Bui et al.); cited from earlier work
[8] = Stability of ATB tablets (ICH storage conditions)
Method: Two independent batches of ATB tablets were tested according to International Conference on Harmonization (ICH) Guideline for long-term (12 months at 25 ± 2 °C/60 ± 5% RH), intermediate (6 months at 30 ± 2 °C/65 ± 5% RH), and accelerated (40 ± 2 °C/75 ± 5% RH) stability [12].

OCT1, OCT2 and OCT3 = tested on: OCT1, OCT2 and OCT3; parameters: method as in PMID 33896325; conditions: read-out: Km of uptake by OCT1, OCT2 and OCT3; cited from earlier work
[9] = parameters: method as in PMID 33896325; conditions: cited from earlier work
[10] = average of 8 healthy volunteers, single oral dose 2400 mg ATB
[11] = average of 8 healthy volunteers, single oral dose 2400 mg ATB, plasma
[12] = average of 8 healthy volunteers, single oral dose 2400 mg ATB, saliva
[13] = individual subjects, single oral dose 2400 mg ATB (8 tablets)
[14] = individual subjects, single oral dose 2400 mg ATB (8 tablets), plasma
[15] = individual subjects, single oral dose 2400 mg ATB (8 tablets), saliva

O=C1CCC[C@@H]2[C@H]3CCCN4CCC[C@@H](CN12)[C@@H]34 [matrine]
AUC0–24 Saliva/Plasma Ratio [1, 10]: 4.8 ± 1.7 | Cmax Saliva/Plasma Ratio [1, 10]: 6.4 ± 1.8 | AUC0–24 Plasma [1, 11]: 278.34 ± 84.90 ng·h/mL | Half-Life Plasma [1, 11]: 10.38 ± 3.83 h | Tmax Plasma [1, 11]: 2.16 ± 0.69 h | AUC0–24 Saliva [1, 12]: 1302.37 ± 459.28 ng·h/mL | Half-Life Saliva [1, 12]: 12.37 ± 7.01 h | Tmax Saliva [1, 12]: 1.56 ± 0.82 h | AUC(0-t) ([1]; plasma, 2.6 mg, plasma, 2.6 mg Matr p.o. (8 ATB tablets), read-out: AUC0-T Healthy Volunteers Observed): 278 ng·h/mL | Cmax ([1]; plasma, 2.6 mg, plasma, 2.6 mg Matr p.o. (8 ATB tablets), read-out: Cmax Healthy Volunteers Observed): 25.2 ng/mL | Tmax ([1]; plasma, 2.6 mg, plasma, 2.6 mg Matr p.o. (8 ATB tablets), read-out: Tmax Healthy Volunteers Observed): 2.2 h | AUC(0-t) ([1]; plasma, 2400 mg, average of 8 healthy volunteers, single oral dose 2400 mg ATB, plasma, read-out: AUC0–24 Plasma): 266 ± 80 ng·h/mL | Cmax ([1]; plasma, 2400 mg, average of 8 healthy volunteers, single oral dose 2400 mg ATB, plasma, read-out: Cmax Plasma): 25.2 ± 3.82 ng/mL | half-life ([1]; plasma, 2400 mg, average of 8 healthy volunteers, single oral dose 2400 mg ATB, plasma, read-out: Half-Life Plasma (converted)): 600 ± 168 min | Tmax ([1]; plasma, 2400 mg, average of 8 healthy volunteers, single oral dose 2400 mg ATB, plasma, read-out: Tmax Plasma): 2 ± 0.6 h | Cmax ([1]; plasma, 2400 mg, individual subjects, single oral dose 2400 mg ATB (8 tablets), plasma, read-out: Cmax Plasma): 22.8 ng/mL | Kp ([1]; 2400 mg, average of 8 healthy volunteers, single oral dose 2400 mg ATB, read-out: AUC0–24 Saliva/Plasma Ratio): 4.8 ± 2 | Kp ([1]; 2400 mg, average of 8 healthy volunteers, single oral dose 2400 mg ATB, read-out: Cmax Saliva/Plasma Ratio): 6.4 ± 1.4 | AUC(0-t) ([1]; saliva, 2400 mg, average of 8 healthy volunteers, single oral dose 2400 mg ATB, saliva, read-out: AUC0–24 Saliva): 1210 ± 399 ng·h/mL | Cmax ([1]; saliva, 2400 mg, average of 8 healthy volunteers, single oral dose 2400 mg ATB, saliva, read-out: Cmax Saliva): 153 ± 53.5 ng/mL | half-life ([1]; saliva, 2400 mg, average of 8 healthy volunteers, single oral dose 2400 mg ATB, saliva, read-out: Half-Life Saliva (converted)): 804 ± 414 min | Tmax ([1]; saliva, 2400 mg, average of 8 healthy volunteers, single oral dose 2400 mg ATB, saliva, read-out: Tmax Saliva): 1.5 ± 0.9 h | AUC0–24 Saliva/Plasma Ratio [1, 13]: 8.57 and 4.71 and 2.86 and 4.68 and 4.61 and 4.14 and 4.81 and 3.93 | Cmax Saliva/Plasma Ratio [1, 13]: 6.73 and 5.60 and 3.26 and 5.12 and 7.05 and 7.41 and 7.27 and 9.08 | AUC0–24 Plasma [1, 14]: 173.50 ng·h/mL and 240.73 ng·h/mL and 295.05 ng·h/mL and 228.16 ng·h/mL and 408.92 ng·h/mL and 247.39 ng·h/mL and 428.83 ng·h/mL and 231.84 ng·h/mL | Cmax Plasma [1, 14]: 22.70 ng/mL and 28.06 ng/mL and 23.60 ng/mL and 28.56 ng/mL and 21.28 ng/mL and 31.91 ng/mL and 22.48 ng/mL | Half-Life Plasma [1, 14]: 6.99 h and 8.43 h and 15.12 h and 17.06 h and 10.66 h and 9.84 h and 6.29 h and 8.65 h | Tmax Plasma [1, 14]: 3 h and 3.3 h and 1 h | AUC0–24 Saliva [1, 15]: 1487.35 ng·h/mL and 1133.48 ng·h/mL and 845.11 ng·h/mL and 1067.94 ng·h/mL and 1884.98 ng·h/mL and 1024.67 ng·h/mL and 2064.14 ng·h/mL and 911.28 ng·h/mL | Cmax Saliva [1, 15]: 153.18 ng/mL and 127.11 ng/mL and 91.61 ng/mL and 120.81 ng/mL and 201.34 ng/mL and 157.71 ng/mL and 231.60 ng/mL and 204.07 ng/mL | Half-Life Saliva [1, 15]: 7.38 h and 9.83 h and 7.59 h and 26.39 h and 18.98 h and 11.13 h and 5.42 h and 12.23 h | Tmax Saliva [1, 15]: 0.5 h and 1 h and 3 h | inter-subject variability of systemic exposure (AUC) ([1]; plasma): 30.1% | inter-subject variability of systemic exposure (AUC) ([1]; saliva): 32.8% | Stability, 3 cycles freeze-thaw ([2]; HQC concentration level): 99.1 ± 6.7 | Stability, Bench work (4 hrs, 25 oC) ([2]; HQC concentration level): 103.1 ± 2.6 | Stability, Short-term (7 days, -20 oC) ([2]; HQC concentration level): 88.3 ± 6.6 | Stability, 3 cycles freeze-thaw ([2]; LOQ concentration level): 109.6 ± 1.3 | Stability, 3 cycles freeze-thaw ([2]; MQC concentration level): 93.7 ± 3.4 | Stability, Bench work (4 hrs, 25 oC) ([2]; MQC concentration level): 85.8 ± 8.9 | Rbp [3]: 0.97 | First pass effect [4]: 26.00% | AUC0-T Human Subjects Observed [5]: 412.2 µg·h/L | Cmax Human Subjects Observed [5]: 29.7 ng/mL | Tmax Human Subjects Observed [5]: 3.0 h | Stability, Long-term (6 months, -80 oC) ([6]; HQC concentration level): 94.6 ± 6.7 | Stability, Bench work (4 hrs, 25 oC) ([6]; LOQ concentration level): 110.5 ± 18.0 | Stability, Long-term (6 months, -80 oC) ([6]; LOQ concentration level): 96.2 ± 0.6 | Stability, Short-term (7 days, -20 oC) ([6]; LOQ concentration level): 86.6 ± 3.8 | Stability, Long-term (6 months, -80 oC) ([6]; MQC concentration level): 105.8 ± 3.8 | Stability, Short-term (7 days, -20 oC) ([6]; MQC concentration level): 85.7 ± 8.7 | bioavailability [7]: 2.4 ± 1.2% | remaining percentage in ATB tablets, Long term 3 months ([8]; 25 ± 2 °C/60 ± 5% RH): 89.1 ± 2.7% | remaining percentage in ATB tablets, Long term 6 months ([8]; 25 ± 2 °C/60 ± 5% RH): 93.9 ± 2.1% | remaining percentage in ATB tablets, Long term 12 months ([8]; 25 ± 2 °C/60 ± 5% RH): 89.6 ± 0.8% | remaining percentage in ATB tablets, Intermediate 3 months ([8]; 30 ± 2 °C/65 ± 5% RH): 89.6 ± 0.5% | remaining percentage in ATB tablets, Intermediate 6 months ([8]; 30 ± 2 °C/65 ± 5% RH): 92.1 ± 3.6% | remaining percentage in ATB tablets, Accelerated term 3 months ([8]; 40 ± 2 °C/75 ± 5% RH): 87.0 ± 5.0% | remaining percentage in ATB tablets, Accelerated term 6 months ([8]; 40 ± 2 °C/75 ± 5% RH): 99.4 ± 3.2%

CN(C)C(=N)N=C(N)N [metformin]
Km (OCT1, OCT2 and OCT3): 0.285 to 3.17 mM | saliva/plasma concentration ratio [9]: 0.29–0.39

From publication PMC9817974, “Pharmacokinetic Basis for Using Saliva Matrine Concentrations as a Clinical Compliance Monitoring in Antitumor B Chemoprevention Trials in Humans” (Cancers, 2022)
